One data set concerns NCI. Briefly: Cell survival assay, NCI (lung) tumor cell line. Type of data set: cell-based. As to conditions: NCI lung tumor cells, 48 h exposure, survival by nuclei count; read-out: Cell lines IC50 NCI.
The test system of data set [1] is Skin diploid fibroblastic cells. The data set is described as follows: Cell survival assay, normal fibroblasts. The conditions noted are these: Fibroblast, 48 h exposure, survival by nuclei count, read-out: Cell lines IC50 Fibroblats. Type of data set: cell-based. The method, then:
(§1) Skin diploid fibroblastic cells were provided by BIOPREDIC International Company (Rennes, France). Caco-2 cells and Huh7 cells were obtained from the ECAC collection. Cells were grown according to ECAC recommendations. The RLEC-F1 clone was derived from an established rat biliary epithelial cell line as previously described. The toxicity test of the compounds on these cells was as follows: 4 × 10^3 cells were seeded in 96 multiwell plates and left for 24 h for attachment, spreading, and growing. Then they were exposed for 48 h to increasing concentrations of the compounds, ranging from […] in a final volume of 80 μL of culture medium. They were then fixed with 4% paraform-aldehyde solution and the nuclei were stained with […] and counted using automated imaging analysis (Simple PCI software).

Another data set deals with Caco2. The data set is described as follows: Cell survival assay, Caco2 (colon) tumor cell line. In kind it is cell-based. The conditions noted are these: Homo sapiens, Caco-2; Caco2 colon tumor cells, 48 h exposure, survival by nuclei count; read-out: Cell lines IC50 Caco2. The method, then:
as §1

Another data set relates to Huh7. Briefly: Cell survival assay, Huh7 (liver) tumor cell line. In kind it is cell-based. As to conditions: Homo sapiens, Huh-7; Huh7 liver tumor cells, 48 h exposure, survival by nuclei count; read-out: Cell lines IC50 Huh7. The method, then: as §1
Another data set relates to PC3. Briefly: Cell survival assay, PC3 (prostate) tumor cell line. In kind it is cell-based. The conditions noted are these: Homo sapiens, PC-3; PC3 prostate tumor cells, 48 h exposure, survival by nuclei count; read-out: Cell lines IC50 PC3.
For another data set, the system named is MDA-MB 231. The data set is described as follows: Cell survival assay, MDA-MB 231 (breast) tumor cell line. As to conditions: Homo sapiens; MDA-MB 231 breast tumor cells, 48 h exposure, survival by nuclei count; read-out: Cell lines IC50 MDA-MB 231. Type of data set: cell-based.
A further data set concerns HCT 116. The data set is described as follows: Cell survival assay, HCT 116 (colon) tumor cell line. Type of data set: cell-based. As to conditions: Homo sapiens; HCT 116 colon tumor cells, 48 h exposure, survival by nuclei count; read-out: Cell lines IC50 HCT 116.
A further data set addresses CLK1 (Homo sapiens, UniProt P49759). Briefly: In vitro kinase inhibition assay CLK1. Type of data set: biochemical. As to conditions: for pIC50: 15 μM ATP, 30°C, buffer A, RS peptide.
The target of another data set is T1, CDK5/p25 (Homo sapiens, UniProt Q00535).
T1 construct: made in house
Briefly: In vitro kinase inhibition assay CDK5/p25. Type of data set: biochemical. The conditions noted are these: for pIC50: 15 μM ATP, 30°C, buffer C, histone H1.

The subject of another data set is GSK-3α/β. The data set is described as follows: In vitro kinase inhibition assay GSK3α/β. The conditions noted are these: for pIC50: 15 μM ATP, 30°C, buffer A, GS-1 substrate. Type of data set: biochemical, porcine.
The next data set has as its target DYRK1A (Homo sapiens, UniProt Q13627). Briefly: In vitro kinase inhibition assay DYRK1A. Type of data set: biochemical. The conditions noted are these: for pIC50: 15 μM ATP, 30°C, buffer A, Woodtide substrate.
For another data set, the system named is CLK2. Briefly: In vitro kinase inhibition assay CLK2. Type of data set: biochemical, human. The conditions noted are these: for pIC50: 15 μM ATP, 30°C, buffer A, RS peptide.
A further data set deals with T2, DYRK2 (Homo sapiens, UniProt Q92630).
T2 sequence (Q92630 1-601): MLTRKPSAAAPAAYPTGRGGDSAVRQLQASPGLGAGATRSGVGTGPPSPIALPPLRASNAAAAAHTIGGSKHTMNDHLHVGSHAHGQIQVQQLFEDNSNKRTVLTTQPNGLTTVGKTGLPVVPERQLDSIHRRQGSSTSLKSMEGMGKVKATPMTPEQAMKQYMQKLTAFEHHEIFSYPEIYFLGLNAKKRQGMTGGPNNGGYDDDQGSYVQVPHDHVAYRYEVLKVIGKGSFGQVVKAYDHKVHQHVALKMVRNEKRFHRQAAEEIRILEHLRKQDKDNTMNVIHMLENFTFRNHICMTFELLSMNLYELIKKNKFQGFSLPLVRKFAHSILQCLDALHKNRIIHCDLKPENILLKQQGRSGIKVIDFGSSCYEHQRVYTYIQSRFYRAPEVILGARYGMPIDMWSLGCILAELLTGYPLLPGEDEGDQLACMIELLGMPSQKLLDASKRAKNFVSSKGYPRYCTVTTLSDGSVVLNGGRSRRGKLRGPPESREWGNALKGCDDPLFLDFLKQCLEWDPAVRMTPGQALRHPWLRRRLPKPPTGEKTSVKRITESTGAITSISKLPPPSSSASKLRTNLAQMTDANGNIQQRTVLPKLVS
The data set is described as follows: In vitro kinase inhibition assay DYRK2. Type of data set: biochemical. The conditions noted are these: for pIC50: 15 μM ATP, 30°C, buffer A, Woodtide substrate.

pIC50: −log10 of the molar value.

Sequence of CLK1 (P49759 whole entry): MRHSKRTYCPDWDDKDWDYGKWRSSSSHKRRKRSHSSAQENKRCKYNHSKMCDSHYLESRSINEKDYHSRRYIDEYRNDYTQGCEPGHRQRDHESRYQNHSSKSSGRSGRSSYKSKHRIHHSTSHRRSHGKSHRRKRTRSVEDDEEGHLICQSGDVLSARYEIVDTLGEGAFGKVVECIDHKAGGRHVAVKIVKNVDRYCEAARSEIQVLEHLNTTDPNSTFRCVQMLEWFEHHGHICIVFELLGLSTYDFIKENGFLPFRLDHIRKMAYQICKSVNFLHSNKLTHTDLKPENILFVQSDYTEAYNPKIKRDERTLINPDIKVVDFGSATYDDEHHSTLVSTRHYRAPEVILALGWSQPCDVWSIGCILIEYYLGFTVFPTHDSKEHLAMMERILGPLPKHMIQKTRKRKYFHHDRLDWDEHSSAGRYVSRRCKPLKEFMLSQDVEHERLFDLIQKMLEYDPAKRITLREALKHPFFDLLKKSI
T1 sequence (Q00535 whole entry): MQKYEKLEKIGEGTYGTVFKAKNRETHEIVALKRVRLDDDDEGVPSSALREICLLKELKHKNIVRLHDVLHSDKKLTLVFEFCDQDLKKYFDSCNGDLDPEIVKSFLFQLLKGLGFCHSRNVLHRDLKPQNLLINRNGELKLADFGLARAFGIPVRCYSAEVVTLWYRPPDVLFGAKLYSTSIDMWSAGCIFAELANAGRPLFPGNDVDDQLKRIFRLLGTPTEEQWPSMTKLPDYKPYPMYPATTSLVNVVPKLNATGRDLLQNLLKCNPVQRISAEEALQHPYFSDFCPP
T1 sequence (Q15078 99-307 partner limits assumed): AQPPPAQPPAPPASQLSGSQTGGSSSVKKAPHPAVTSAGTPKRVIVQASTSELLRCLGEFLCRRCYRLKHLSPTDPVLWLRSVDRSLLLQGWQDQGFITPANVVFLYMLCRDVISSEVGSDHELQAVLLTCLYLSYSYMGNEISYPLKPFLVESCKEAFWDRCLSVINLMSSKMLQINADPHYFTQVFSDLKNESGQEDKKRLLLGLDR
Method for CDK5/p25: (§2) Buffer A: 10 mM MgCl2, 1 mM EGTA, 1 mM DTT, 25 mM Tris-HCl pH 7.5, 50 μg heparin/ml. Buffer C: 60 mM ß-glycerophosphate, 15 mM p-nitrophenylphosphate, 25 mM Mops (pH 7.2), 5 mM EGTA, 15 mM MgCl2, 1 mM DTT, 1 mM sodium vanadate, 1 mM phenylphosphate. […] Blank values were subtracted and activities expressed in % of the maximal activity, i.e. in the absence of inhibitors. Controls were performed with appropriate dilutions of DMSO. The kinase peptide substrates were obtained from Millegen (Labege, France). […] ATP (3,000 Ci/mmol; 10 mCi/ml) in a final volume of 30 μl. After 30 min incubation at 30°C, the reaction was stopped by harvesting onto P81 phosphocellulose papers (Whatman) using a FilterMate harvester (Packard) and were washed in 1% phosphoric acid. Scintillation fluid was added and the radioactivity was measured in a Packard counter. CLK1 and CLK3 (human, recombinant, expressed in E. coli as GST fusion proteins) were assayed in buffer A (+ 0.15 mg BSA /ml) with RS peptide ([sequence]) (1μg/assay). […] Its kinase activity was assayed in buffer C, with 1 μg histone H1 /ml. GSK-3α/β (porcine brain, native) was assayed in Buffer A and using a GSK-3 specific substrate (GS-1: [sequence]pEDEEE) (pS stands for phosphorylated serine) [20].
Method for CLK1: as §2
Method for CLK2: Buffer A: 10 mM MgCl2, 1 mM EGTA, 1 mM DTT, 25 mM Tris-HCl pH 7.5, 50 μg heparin/ml. […] Blank values were subtracted and activities expressed in % of the maximal activity, i.e. in the absence of inhibitors. Controls were performed with appropriate dilutions of DMSO. The kinase peptide substrates were obtained from Millegen (Labege, France). […] ATP (3,000 Ci/mmol; 10 mCi/ml) in a final volume of 30 μl. After 30 min incubation at 30°C, the reaction was stopped by harvesting onto P81 phosphocellulose papers (Whatman) using a FilterMate harvester (Packard) and were washed in 1% phosphoric acid. Scintillation fluid was added and the radioactivity was measured in a Packard counter.
Method for DYRK1A: as §2
Method for GSK-3α/β: as §2

Turning to `O=C(O)CCN1C(=O)/C(=C/c2ccccc2)SC1=S` [Compound 3d, 3-[(5Z)-5-Benzylidene-4-oxo-2-thioxo-1,3-thiazolidin-3-yl]propanoic acid], the melting point is 224 to 226 °C.

For `O=C1N=C(N2CCN(C3=NC(=O)/C(=C/c4ccccc4)S3)CC2)S/C1=C\c1ccccc1` [Compound 5a, (5Z,5’Z)-2,2’-(Piperazine-1,4-diyl)bis(5-benzylidene-1,3-thiazol-4(5H)-one)], the melting point was above 260 °C. In addition, in the data set on NCI, the pIC50 was below 4.60. Further, the negative-log IC50 (pIC50) in [1] was below 4.60. Moreover, the pIC50 with Caco2 was 4.60. Also, the pIC50 in the data set with Huh7 is below 4.60. Also, the pIC50 in the data set with PC3 is below 4.60. The negative logarithm of the IC50 (pIC50) in the data set on MDA-MB 231 was below 4.60. For the same compound, the pIC50 in the data set with HCT 116 was below 4.60.

Take `COc1ccc(/C=C2\SC(=S)NC2=O)cc1` [Compound 3b, (5Z)-5-(4-Methoxybenzylidene)-2-thioxo-1,3-thiazolidin-4-one]: the “Activity towards CLK1 (in words)” value at CLK1 is “inactive”. In addition, the pIC50 at CLK1 was below 5.00; in the data set with NCI it was below 4.60; against CDK5/p25, below 5.00; in [1], below 4.60; on GSK-3α/β, below 5.00; with Caco2, below 4.60. Also, the negative logarithm of the IC50 (pIC50) is below 5.00 on DYRK1A; below 4.60 in the data set with Huh7; below 4.60 in the data set on PC3; below 5.00 against CLK2; below 4.60 in the data set on MDA-MB 231; below 4.60 in the data set on HCT 116. The same compound showed a pIC50 against DYRK2 below 5.00. In addition, the “Activity towards CDK5/p25 (in words)” value at CDK5/p25 is “inactive”. Moreover, in the data set on GSK-3α/β, the “Activity towards GSK3α/β (in words)” value is “inactive”. At DYRK1A, the “Activity towards DYRK1A (in words)” value is “inactive”. For the same compound, the “Activity towards CLK2 (in words)” value in the data set with CLK2 is “inactive”. In addition, the “Activity towards DYRK2 (in words)” value at DYRK2 was “inactive”.

`COc1ccc(/C=C2\SC(NCCCN3CCN(CCCNC4=NC(=O)/C(=C/c5ccc(OC)cc5)S4)CC3)=NC2=O)cc1` [Compound 5d, (5Z,5’Z)-2,2’-[Piperazine-1,4-diylbis(propane-3,1-diylimino)]bis[5-(4-methoxybenzylidene)-1,3-thiazol-4(5H)-one]] came in with a melting point of 220 to 222 °C. The pIC50 against CLK1 was 6.30. On CDK5/p25, this compound gave a pIC50 below 5.00. Besides, the negative logarithm of the IC50 (pIC50) on GSK-3α/β was below 5.00. Also, at DYRK1A, the “Activity towards DYRK1A (in words)” value was “nanomolar inhibition potency” and the pIC50 is 7.39. The pIC50 against CLK2 is 5.11. This compound also showed a pIC50 on DYRK2 of 6.22.

In the case of `O=C1N=C(NCCCN2CCN(CCCNC3=NC(=O)/C(=C/c4ccc5c(c4)OCO5)S3)CC2)S/C1=C\c1ccc2c(c1)OCO2` [Compound 5e, (5Z,5’Z)-2,2’-[Piperazine-1,4-diylbis(propane-3,1-diylimino)]bis[5-(1,3-benzodioxol-5-ylmethylene)-1,3-thiazol-4(5H)-one]], the melting point lay within 222 to 224 °C.

For the compound `O=C1NC(=S)S/C1=C\c1ccc2c(c1)OCO2` [Compound 3c, (5Z)-5-(1,3-Benzodioxol-5-ylmethylidene)-2-thioxo-1,3-thiazolidin-4-one], the pIC50 with NCI was below 4.60; on CDK5/p25 it was below 5.00; in data set [1], below 4.60; at GSK-3α/β, 5.07; in the data set with Caco2, below 4.60; on DYRK1A, 7.15. For the same compound, the pIC50 with Huh7, in the data set with PC3, in the data set on MDA-MB 231 and in the data set on HCT 116 was below 4.60 in each case.

Consider `O=C(O)CCN1C(=O)/C(=C/c2ccc3c(c2)OCCO3)SC1=S` [Compound 3g, 3-[(5Z)-5-(2,3-Dihydro-1,4-benzodioxin-6-ylmethylidene)-4-oxo-2-thioxo-1,3-thiazolidin-3-yl]propanoic acid], for which the melting point lay within 226 to 228 °C.

Regarding `COc1ccc(/C=C2\SC(N3CCN(C4=NC(=O)/C(=C/c5ccc(OC)cc5)S4)CC3)=NC2=O)cc1` [Compound 5b, (5Z,5’Z)-2,2’-(Piperazine-1,4-diyl)bis[5-(4-methoxybenzylidene)-1,3-thiazol-4(5H)-one]], the melting point was above 260 °C.

Consider `O=C1N=C(N2CCN(C3=NC(=O)/C(=C/c4ccc5c(c4)OCO5)S3)CC2)S/C1=C\c1ccc2c(c1)OCO2` [Compound 5c, (5Z,5’Z)-2,2’-(Piperazine-1,4-diyl)bis[5-(1,3-benzodioxol-5-ylmethylene)-1,3-thiazol-4(5H)-one]], for which the negative logarithm of the IC50 (pIC50) with NCI is below 4.60; in [1], 4.40; in the data set with Caco2, 4.70; in the data set with Huh7 it was below 4.60; in the data set on PC3 it was 4.40; in the data set with MDA-MB 231, below 4.60. Besides, in the data set with HCT 116, the pIC50 is below 4.60.

(Values after publication PMC3528043, “Synthesis of New N,N’-Bis(5-arylidene-4-oxo-4,5-dihydrothiazolin-2-yl)piperazine Derivatives Under Microwave Irradiation and Preliminary Biological Evaluation” (Scientia Pharmaceutica, 2012).)
